From patent publication US20130302442A1, “METHODS OF USING (4S,4AS,5AR,12AS)-4-DIMETHYLAMINO-3,10,12,12A-TETRAHYDROXY-7-[(METHOXY(METHYL)AMINO)-METHYL]-1,11-DIOXO-1,4,4A,5,5A,6,11,12A-OCTAHYDRO-NAPHTHACENE-2-CARBOXYLIC ACID AMIDE” (priority 2012, published 2013)
In brackets after ≈: the same amount, converted by molar mass. Read-outs that look alike come from different tables or passages of the source.

How the values were obtained:
Chlamydia trachomatis [1] = experiment: Susceptibility testing (MIC, MBC) of 10 isolates of C. trachomatis in HEp-2 cells; assay type: cell-based
Chlamydia pneumoniae = experiment: Susceptibility testing (MIC, MBC) of 10 isolates of C. pneumoniae in HEp-2 cells; assay type: cell-based
Chlamydia trachomatis [2] = experiment: In vitro susceptibility testing of Chlamydia trachomatis in HEp-2 cells (first study); assay type: cell-based; details: Chlamydia trachomatis, C. trachomatis strains, read-out: MIC at which 90% of the strains were inhibited (MIC90)
Helicobacter pylori [3] = details: H. pylori reference strain 3718, ATCC 43504; Clinical and Laboratory Standards Institute quality control range; cited from earlier work
Helicobacter pylori [4] = experiment: In vitro MIC against multiple isolates of H. pylori; assay type: cell-based; details: for MIC: read-out: MIC
Prevotella spp. = experiment: In vitro MIC testing against anaerobic bacteria; assay type: cell-based
Bifidobacterium longum = experiment: In vitro MIC testing against anaerobic bacteria; assay type: cell-based; details: ATCC15707; Bifidobacterium longum 3968, ATCC 15707
E. faecium = experiment: In vitro MIC testing, antibacterial spectrum of activity; assay type: cell-based; details: Enterococcus faecium
Salmonella Spp. = experiment: as above; assay type: cell-based; details: Salmonella
P. granulosum = experiment: as above; assay type: cell-based; details: P. granulosum [clinical isolates] (3 isolates)
E. cloacae = experiment: as above; assay type: cell-based; details: Enterobacter cloacae; E. cloacae (30 isolates)
E. coli = experiment: as above; assay type: cell-based; details: Escherichia coli; E. coli (33 isolates); read-out: MIC90
Bifidobacterium brevi = experiment: In vitro MIC testing against anaerobic bacteria; assay type: cell-based; details: ATCC15698; Bifidobacterium brevi 3967, ATCC 15698
Bifidobacterium bifidum = experiment: In vitro MIC testing against anaerobic bacteria; assay type: cell-based; details: ATCC15696; Bifidobacterium bifidum 3965, ATCC 15696
[5] = tested on: Lactobacillus acidophilus; experiment: In vitro MIC testing against anaerobic bacteria; assay type: cell-based; details: Lactobacillus acidophilus 0681
[6] = tested on: Streptococcus intermedius; experiment: In vitro MIC testing against anaerobic bacteria; assay type: cell-based; details: ATCC27335; Streptococcus intermedius 1203, ATCC 27335
S. haemolyticus = experiment: In vitro MIC testing, antibacterial spectrum of activity; assay type: cell-based; details: Staphylococcus haemolyticus; S. haemolyticus (33 isolates); read-out: MIC90
K. pneumoniae = experiment: as above; assay type: cell-based
Bifidobacterium infantis = experiment: In vitro MIC testing against anaerobic bacteria; assay type: cell-based; details: ATCC15702; Bifidobacterium infantis 3966, ATCC 15702
P. acnes = experiment: In vitro MIC testing, antibacterial spectrum of activity; assay type: cell-based, Propionibacterium acnes; details: Cutibacterium acnes
Veillonella parvula = experiment: In vitro MIC testing against anaerobic bacteria; assay type: cell-based; details: ATCC17745; Veillonella parvula 1272, ATCC 17745
Clostridium perfringens = experiment: microbe, parasite or virus in culture; assay type: cell-based
P. avidum = experiment: In vitro MIC testing, antibacterial spectrum of activity; assay type: cell-based; details: P. avidum [clinical isolates] (4 isolates)
S. agalactiae = experiment: as above; assay type: cell-based; details: Streptococcus agalactiae
Lactobacillus casei = experiment: In vitro MIC testing against anaerobic bacteria; assay type: cell-based; details: Lacticaseibacillus casei, ATCC393; Lactobacillus casei 1722, ATCC 393
Bacteroides ovatus = experiment: In vitro MIC testing against anaerobic bacteria; assay type: cell-based; details: Bacteroides ovatus 3508, read-out: MIC
[7] = tested on: Prevotella melaninogenica; experiment: In vitro MIC testing against anaerobic bacteria; assay type: cell-based; details: Prevotella melaninogenica 3443, read-out: MIC
P. aeruginosa = experiment: In vitro MIC testing, antibacterial spectrum of activity; assay type: cell-based; details: Pseudomonas aeruginosa; P. aeruginosa (11 isolates)
Lactobacillus plantarum = experiment: In vitro MIC testing against anaerobic bacteria; assay type: cell-based; details: Lactiplantibacillus plantarum, ATCC39268; Lactobacillus plantarum 2791, ATCC 39268
[8] = Klebsiella pneumoniae, K. pneumoniae (31 isolates)
[9] = P. acnes [clinical isolates] (55 isolates)

Structure (SMILES): C[C@H]1COc2c(N3CCN(C)CC3)c(F)cc3c(=O)c(C(=O)O)cn1c23 [Levofloxacin]
- MIC Range (Chlamydia trachomatis [1]; 72 h): 0.125 to 0.5 µg/mL
- MIC50 (Chlamydia trachomatis [1]; Chlamydia trachomatis, 72 h): 0.25 µg/mL (≈ 0.692 µM)
- MIC90 (Chlamydia trachomatis [1]; Chlamydia trachomatis, 72 h): 0.25 µg/mL (≈ 0.692 µM)
- MBC (Chlamydia trachomatis [1]; Chlamydia trachomatis, after passage, read-out: MBC 90%): 0.5 µg/mL (≈ 1.38 µM)
- MBC Range (Chlamydia trachomatis [1]; after passage): 0.125 to 1 µg/mL
- MIC Range (Chlamydia pneumoniae; 72 h): 0.5 µg/mL (≈ 1.38 µM)
- MIC50 (Chlamydia pneumoniae; Chlamydia pneumoniae, 72 h): 0.5 µg/mL (≈ 1.38 µM)
- MIC90 (Chlamydia pneumoniae; Chlamydia pneumoniae, 72 h): 0.5 µg/mL (≈ 1.38 µM)
- MBC (Chlamydia pneumoniae; Chlamydia pneumoniae, after passage, read-out: MBC 90%): 2 µg/mL (≈ 5.53 µM)
- MBC 90% (Chlamydia pneumoniae; after passage): 2 µg/mL (≈ 5.53 µM)
- MBC Range (Chlamydia pneumoniae; after passage): 0.125 to 2 µg/mL
- MIC90 (Chlamydia trachomatis [2]): 0.25 µg/mL (≈ 0.692 µM)

Structure (SMILES): Cc1ncc([N+](=O)[O-])n1CCO [Metronidazole, metronidazole]
- MIC, CLSI Quality Control Range (Helicobacter pylori [3]): 64 to 256 µg/mL
- MIC Range (Helicobacter pylori [4]; H. pylori clinical isolate summary): ≦0.03-64 μg/mL
- MIC (Helicobacter pylori [4]; Helicobacter pylori, ATCC43504, H. pylori reference strain, culture No. 3718, ATCC 43504): 64 µg/mL (≈ 374 µM)
- MIC (Helicobacter pylori [4]; Helicobacter pylori, ATCC700824, H. pylori reference strain, culture No. 3719, ATCC 700824): 1 µg/mL (≈ 5.84 µM)
- MIC (Helicobacter pylori [4]; Helicobacter pylori, ATCCBAA945, H. pylori reference strain, culture No. 3720, ATCC BAA-945): 1 µg/mL (≈ 5.84 µM)
- MIC (Helicobacter pylori [4]; Helicobacter pylori, H. pylori clinical isolate, culture No. 4368): 0.25 µg/mL (≈ 1.46 µM)
- MIC (Helicobacter pylori [4]; Helicobacter pylori, H. pylori clinical isolate, culture No. 4369): 0.5 µg/mL (≈ 2.92 µM)
- MIC (Helicobacter pylori [4]; Helicobacter pylori, H. pylori clinical isolate, culture No. 4370): 0.12 µg/mL (≈ 0.701 µM)
- MIC (Helicobacter pylori [4]; Helicobacter pylori, H. pylori clinical isolate, culture No. 4371): 1 µg/mL (≈ 5.84 µM)
- MIC (Helicobacter pylori [4]; Helicobacter pylori, H. pylori clinical isolate, culture No. 4372): 0.25 µg/mL (≈ 1.46 µM)
- MIC (Helicobacter pylori [4]; Helicobacter pylori, H. pylori clinical isolate, culture No. 4374): 0.12 µg/mL (≈ 0.701 µM)
- MIC (Helicobacter pylori [4]; Helicobacter pylori, H. pylori clinical isolate, culture No. 4375): 0.12 µg/mL (≈ 0.701 µM)
- MIC (Helicobacter pylori [4]; Helicobacter pylori, H. pylori clinical isolate, culture No. 4377): 1 µg/mL (≈ 5.84 µM)
- MIC (Helicobacter pylori [4]; Helicobacter pylori, H. pylori clinical isolate, culture No. 4503): ≤ 0.03 µg/mL
- MIC (Helicobacter pylori [4]; Helicobacter pylori, H. pylori clinical isolate, culture No. 4504): ≤ 0.03 µg/mL
- MIC90 (Helicobacter pylori [4]; Helicobacter pylori, H. pylori, MIC for 90% of clinical test isolates, read-out: MIC90): 1 µg/mL (≈ 5.84 µM)
- MIC50 (Helicobacter pylori [4]; Helicobacter pylori, read-out: MIC50): 0.12 µg/mL (≈ 0.701 µM)

Structure (SMILES): CN(C)[C@@H]1C(O)=C(C(N)=O)C(=O)[C@@]2(O)C(O)=C3C(=O)c4c(O)cccc4[C@@](C)(O)[C@H]3C[C@@H]12 [Tetracycline, tetracycline]
- MIC (Prevotella spp.; Prevotella spp. 3564): 1 µg/mL (≈ 2.25 µM)
- MIC (Prevotella spp.; Prevotella spp. 3568): 4 µg/mL (≈ 9 µM)
- MIC (Bifidobacterium longum): 2 µg/mL (≈ 4.5 µM)
- MIC50 (E. faecium): 1 µg/mL (≈ 2.25 µM)
- MIC90 (E. faecium): > 64 µg/mL
- MIC50 (E. faecium; VRE): 2 µg/mL (≈ 4.5 µM)
- MIC90 (E. faecium; VRE): > 64 µg/mL
- MIC50 (Salmonella Spp.): 2 µg/mL (≈ 4.5 µM)
- MIC90 (Salmonella Spp.): > 64 µg/mL
- MIC Range (P. granulosum): 1 to 2 µg/mL
- MIC90 (E. cloacae): > 64 µg/mL
- MIC90 (E. coli): > 64 µg/mL
- MIC (Bifidobacterium brevi): 1 µg/mL (≈ 2.25 µM)
- MIC (Bifidobacterium bifidum): 1 µg/mL (≈ 2.25 µM)
- MIC [5]: 2 µg/mL (≈ 4.5 µM)
- MIC [6]: 2 µg/mL (≈ 4.5 µM)
- MIC90 (S. haemolyticus): > 32 µg/mL
- MIC Range (K. pneumoniae; K. pneumoniae [tetS] (7 isolates)): 0.5 to 4 µg/mL
- MIC50 (K. pneumoniae; [8]): 8 µg/mL (≈ 18 µM)
- MIC90 (K. pneumoniae; [8]): > 64 µg/mL
- MIC (Bifidobacterium infantis): 1 µg/mL (≈ 2.25 µM)
- MIC50 (P. acnes): 0.5 µg/mL (≈ 1.13 µM)
- MIC90 (P. acnes): 4 µg/mL (≈ 9 µM)
- MIC50 (P. acnes; [9]): 1 µg/mL (≈ 2.25 µM)
- MIC90 (P. acnes; [9]): 2 µg/mL (≈ 4.5 µM)
- MIC (Veillonella parvula): 1 µg/mL (≈ 2.25 µM)
- MIC (Clostridium perfringens): > 16 µg/mL
- MIC (Clostridium perfringens; Clostridium perfringens 3518): > 16 µg/mL
- MIC Range (P. avidum): 1 to 8 µg/mL
- MIC90 (S. agalactiae): > 32 µg/mL
- MIC (Lactobacillus casei): 2 µg/mL (≈ 4.5 µM)
- MIC (Bacteroides ovatus): 0.5 µg/mL (≈ 1.13 µM)
- MIC [7]: 8 µg/mL (≈ 18 µM)
- MIC50 (P. aeruginosa): 64 µg/mL (≈ 144 µM)
- MIC (Lactobacillus plantarum): 2 µg/mL (≈ 4.5 µM)
